From paper PMC12424025, “Deep Structural Characterization of Protein-Bound Lipids via Native MS and Ultraviolet Photodissociation” (Analytical Chemistry, 2025)

Biological target: T1, AqpZ (Escherichia coli, UniProt P60844)
T1 construct: C-terminal GFP-His tag cut by TEV protease; expressed in E. coli BL21(DE3); DDM-purified, C8E4 for native MS; homotetramer about 102 kDa with lipids (17-, m/z 6000)
T1 sequence (P60844 1-231): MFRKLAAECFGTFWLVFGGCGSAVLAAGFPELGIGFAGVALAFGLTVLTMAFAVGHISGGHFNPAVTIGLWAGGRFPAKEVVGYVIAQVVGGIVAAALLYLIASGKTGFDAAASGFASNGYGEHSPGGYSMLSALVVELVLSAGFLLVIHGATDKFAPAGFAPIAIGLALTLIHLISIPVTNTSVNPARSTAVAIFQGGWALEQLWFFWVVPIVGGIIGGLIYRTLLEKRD
Experiment: native MS with single lipid standard
Type: binding
Conditions: 200 mM ammonium acetate pH 7.0, 2xCMC C8E4

Compound | native MS with single lipid standard
CCCCCCCC/C=C\CCCCCCCC(=O)OC[C@H](COP(=O)(O)OCC(O)COP(=O)(O)OC[C@@H](COC(=O)CCCCCCC/C=C\CCCCCCCC)OC(=O)CCCCCCC/C=C\CCCCCCCC)OC(=O)CCCCCCC/C=C\CCCCCCCC (some centres unmarked) [CDL 18:1(9Z)] | The resulting native mass spectra confirmed that all three lipid classes bind to the membrane protein
CCCCCCCC/C=C\CCCCCCCC(=O)OC[C@H](COP(=O)(O)OCC(O)CO)OC(=O)CCCCCCC/C=C\CCCCCCCC (some centres unmarked) [DOPG] | The resulting native mass spectra confirmed that all three lipid classes bind to the membrane protein
